Like-named read-outs stand apart in the source and are kept apart here.
Columns and labels:
[1] = test system: human whole blood; test: Confirmation of presence and absence of hemolysis in whole blood with surfactant (Example 2)
Procedure: A surfactant was added to human whole blood for confirmation of presence and absence of hemolysis. […] Octyltrimethylammonium bromide (C8TAB) and hexadecyltrimethylammonium chloride (C16TAC) were used as cationic surfactants. N-decanoyl sarcosine sodium (N-DSS (NDS)) and N-lauroyl sarcosine sodium hydrate (NLS) were used as anionic surfactants. As amphoteric surfactants, CHAPS and N-dodecyl-N,N-dimethyl-3-ammonio-l-propanesulfonate (C12APS) were used.
More specifically, 900 μL of whole blood obtained after blood collection was added to the 5 mL polypropylene test tube (manufactured by nunc) containing 100 μL of D-PBS (-) supplemented with the surfactant. The surfactant was added to achieve a final concentration of 0.5 W/V % after mixed with whole blood. After the addition of whole blood, the test tubes were inverted for mixing, and allowed to stand at room temperature for 30 minutes. After centrifugation (3000 rpm, 5 minutes), the supernatant was collected for visual check of the presence and absence of hemolysis.

[2] = test system: CD9, the surface marker protein of the extracellular vesicle (EV); test: Recovery of EV from whole blood with chelating agent (CD9 measured in supernatant, Example 1); set-up: species or system human; conditions: chelating agent final concentration 15 mM in whole blood
Procedure: The chelating agent was added to human whole blood. After centrifugation, CD9 in the supernatant was measured. […]

[3] = test system: CD9, the surface marker protein of extracellular vesicle (EV); test: Recovery of EV from whole blood supplemented with chelating agent and surfactant (CD9 in supernatant, Example 3); set-up: species or system human; conditions: chelating agent 60 mM
Procedure: To 0.01 g/mL of magnetic particles in 10 mM MES buffer (pH 5.0), 0.2 mg/mL of a mouse anti-CD9 monoclonal antibody (Fujirebio Inc.) that recognizes an extracellular vesicle (EV) surface marker CD9, was added. Then, the resulting solution was gently stirred at 25° C. for one hour for incubation. After the reaction, the magnetic particles were magnetically collected and washed with a washing solution (50 mM Tris buffer, 150 mM NaCl2, 2.0% BSA, pH 7.2) in order to obtain anti-CD9 antibody solid-phased particles. Each antibody solid-phased particle was suspended in a particle diluent (50 mM Tris buffer, 1 mM EDTA-2Na, 0.1% NaN3, 2.0% BSA, pH 7.2) in order to obtain each antibody solid-phased particle solution. […]
The chelating agent and the surfactant were added to human whole blood. CD9 was measured in the supernatant after centrifugation. […]

[4] = test system: CD9, the surface marker protein of extracellular vesicle (EV); test: Study of action of chelating agent and surfactant on whole blood or on immune reaction (CD9, Example 5); set-up: species or system human; conditions: for vs. no EGTA (%): 100 mM EGTA in particle solution vs none
Procedure: (§1) To 0.01 g/mL of magnetic particles in 10 mM MES buffer (pH 5.0), 0.2 mg/mL of a mouse anti-CD9 monoclonal antibody (Fujirebio Inc.) that recognizes an extracellular vesicle (EV) surface marker CD9, was added. Then, the resulting solution was gently stirred at 25° C. for one hour for incubation. After the reaction, the magnetic particles were magnetically collected and washed with a washing solution (50 mM Tris buffer, 150 mM NaCl2, 2.0% BSA, pH 7.2) in order to obtain anti-CD9 antibody solid-phased particles. Each antibody solid-phased particle was suspended in a particle diluent (50 mM Tris buffer, 1 mM EDTA-2Na, 0.1% NaN3, 2.0% BSA, pH 7.2) in order to obtain each antibody solid-phased particle solution.
(§2) Desalted alkaline phosphatase (ALP) was mixed with N-(4-maleimidobutyryloxy)-succinimide (GMBS) (final concentration 0.3 mg/mL) and the resulting solution was allowed to stand at 30° C. for one hour for maleimidation of ALP. Next, in a coupling reactant solution (100 mM phosphate buffer, 1 mM EDTA-2Na, pH 6.3), Fab's of mouse anti-CD9 monoclonal antibody was mixed with maleimidized ALP at a molar ratio of 1: 1, and reacted at 25° C. for one hour. The reactant solution was subjected to purification using Superdex 200 column chromatography (General Electric Company) to obtain ALP-labeled anti-CD9 antibody. Each ALP-labeled antibody was suspended in a labeled antibody diluent (50 mM MES buffer, 150 mM NaCl2, 0.3 mM ZnCl2, 1 mM MgCl2, 0.1% NaN3, 2.0% BSA, pH 6.8) to obtain each labeled antibody solution.
20 μL of the sample for measurement and 50 μL of the anti-CD9 antibody solid-phased particle solution were dispensed into the reaction vessel and stirred. Then, the resulting solution was incubated at 37° C. for 8 minutes (primary reaction), and B/F separation and washing were carried out. 50 μL of the ALP-labeled antibody was dispensed into the reaction vessel, the resulting solution was stirred and then incubated at 37° C. for 8 minutes, and B/F separation and washing were carried out. Then, 200 μL of Lumipulse (registered trademark) substrate solution (Fujirebio Inc.) containing 3-(2′-spiroadamantane)-4-methoxy-4-(3″-phosphoryloxy)phenyl-1,2-dioxetane disodium salt (AMPPD) serving as a chemiluminescent substance was dispensed into the reaction chamber. The resulting solution was stirred and then incubated at 37° C. for 4 minutes for the measurement of luminescence intensity using luminometer. A count value was obtained as the measured value. The luminescence intensity was measured using a fully automated chemiluminescent enzyme immunoassay system (Lumipulse L2400 (Fujirebio Inc.)). […]
In addition, CD9 was measured also for a solution obtained by adding 100 mM EGTA to the CD9 antibody solid-phased particle solution. […]

[5] = test system: CD9, the surface marker protein of extracellular vesicle (EV); test: Study of concentrations of chelating agent and surfactant (CD9 in supernatant, Example 4); set-up: species or system human; conditions: Tergitol 15-S-40 0%
Procedure: as §1, §2
20 μL of the sample for measurement and 50 μL of the anti-CD9 antibody solid-phased particle solution were dispensed into the reaction vessel and stirred. Then, the resulting solution was incubated at 37° C. for 8 minutes (primary reaction), and B/F separation and washing were carried out. 50 μL of the ALP-labeled antibody was dispensed into the reaction vessel, the resulting solution was stirred and then incubated at 37° C. for 8 minutes, and B/F separation and washing were carried out. Then, 200 μL of Lumipulse (registered trademark) substrate solution (Fujirebio Inc.) containing 3-(2′-spiroadamantane)-4-methoxy-4-(3″-phosphoryloxy)phenyl-1,2-dioxetane disodium salt (AMPPD) serving as a chemiluminescent substance was dispensed into the reaction chamber. The resulting solution was stirred and then incubated at 37° C. for 4 minutes for the measurement of luminescence intensity using luminometer. A count value was obtained as the measured value. The luminescence intensity was measured using a fully automated chemiluminescent enzyme immunoassay system (Lumipulse L2400 (Fujirebio Inc.)).
Antibodies recognizing the same epitope in CD9 were used as the antibody solid-phased on the magnetic particle and the ALP-labeled antibody. Due to the presence of a plurality of CD9 on a single extracellular vesicle, it is possible to measure for the extracellular vesicle presenting a plurality of CD9 to be indicated as the surface marker rather than free CD9 by means of the sandwich immunoassay in which the antibodies recognizing the same epitope as the solid-phased antibodies were used as the ALP-labeled antibodies.
Various concentrations of the chelating agent and the surfactant were added to human whole blood, for the measurement of CD9 in the supernatant obtained after centrifugation. […]

[6] = test system: CD9, the surface marker protein of extracellular vesicle (EV); test: Study of surfactant type in combination with EGTA (CD9 in supernatant, Example 6); set-up: species or system human; conditions: EGTA 200 mM, no surfactant (D-PBS(-))
Procedure: as §1, with “solution. […]” for “solution.”
20 μL of the sample for measurement and 50 μL of the anti-CD9 antibody solid-phased particle solution were dispensed into the reaction vessel and stirred. […] The resulting solution was stirred and then incubated at 37° C. for 4 minutes for the measurement of luminescence intensity using luminometer. A count value was obtained as the measured value. The luminescence intensity was measured using a fully automated chemiluminescent enzyme immunoassay system (Lumipulse L2400 (Fujirebio Inc.)). […]

[7] = surfactant final 0.5 W/V % in whole blood, visual check of supernatant

SMILES: CCCCCCCCCCCC[N+](C)(C)CCCS(=O)(=O)[O-] [C12APS, N-dodecyl-N,N-dimethyl-3-ammonio-l-propanesulfonate]
- Hemolysis, Specimen 1 [1, 7]: Hemolysis
- Hemolysis, Specimen 2 [1, 7]: Hemolysis

SMILES: CCCCCCCCCCCCCCCC[N+](C)(C)C.[Cl-] [C16TAC, hexadecyltrimethylammonium chloride]
- Hemolysis, Specimen 1 [1, 7]: Hemolysis
- Hemolysis, Specimen 2 [1, 7]: Hemolysis

SMILES: C[C@H](CCC(=O)NCCC[N+](C)(C)CCCS(=O)(=O)[O-])[C@H]1CC[C@H]2[C@@H]3[C@H](O)C[C@@H]4C[C@H](O)CC[C@]4(C)[C@H]3C[C@H](O)[C@]12C [CHAPS]
- Hemolysis, Specimen 1 [1, 7]: Hemolysis
- Hemolysis, Specimen 2 [1, 7]: Hemolysis

SMILES: O=C(O)CN(CCN(CC(=O)O)CC(=O)O)CC(=O)O.[Na].[Na] [EDTA2Na, disodium ethylenediaminetetraacetic acid]
- vs. non-addition (%) [2]: 376.6%
- vs. No chelating agent and surfactant added (%) [3]: 196.6%

SMILES: O=C(O)CN(CCOCCOCCN(CC(=O)O)CC(=O)O)CC(=O)O [EGTA, glycol ether diamine tetraacetic acid]
- vs. no EGTA (%) ([4]; blood collection vessel: 200 mM EGTA, 0% Tergitol): 112.9%
- vs. no EGTA (%) ([4]; blood collection vessel: nothing added): 71%
- vs. non-addition (%) ([4]; blood collection vessel: 200 mM EGTA, 0% Tergitol, particle solution: 100 mM EGTA + 0.5% Tergitol): 843.5%
- vs. non-addition (%) ([4]; blood collection vessel: 200 mM EGTA, 0% Tergitol, particle solution: 0.5% Tergitol): 530.5%
- vs. non-addition (%) [2]: 215%
- CD9 vs. 0 mM EGTA (%) ([5]; EGTA 10 mM): 154%
- CD9 vs. 0% Tergitol (%) ([5]; EGTA 50 mM): 294%
- CD9 vs. 0 mM EGTA (%) ([5]; EGTA 50 mM): 294%
- CD9 vs. 0 mM EGTA (%) ([5]; EGTA 100 mM): 532%
- CD9 vs. 0 mM EGTA (%) ([5]; EGTA 200 mM): 721%
- vs. non-addition [6]: 366.4
- vs. No chelating agent and surfactant added (%) [3]: 332.6%

SMILES: O=C(O)CN(CCO)CCN(CC(=O)O)CC(=O)O [HEDTA, hydroxyethyl ethylenediaminetriacetic acid]
- vs. non-addition (%) [2]: 963.9%

SMILES: CCCCCCCCCC(=O)N(C)CC(=O)O.[Na] [N-DSS (NDS), N-decanoyl sarcosine sodium]
- Hemolysis, Specimen 1 [1]: Hemolysis
- Hemolysis, Specimen 2 [1]: Hemolysis

SMILES: CCCCCCCCCCCC(=O)N(C)CC(=O)O.O.[Na] [NLS, N-lauroyl sarcosine sodium hydrate]
- Hemolysis, Specimen 1 [1]: Hemolysis
- Hemolysis, Specimen 2 [1]: Hemolysis

SMILES: O=C(O)CN(CC(=O)O)CC(=O)O [NTA, nitrilotriacetic acid]
- vs. non-addition (%) [2]: 427.7%
